Results on two compounds are retold here after article PMC9856672, “SGC-CAMKK2-1: A Chemical Probe for CAMKK2” (Cells, 2023).

One experiment deals with T1, HIPK4 (Homo sapiens, UniProt Q8NE63).
T1 construct: purchased Eurofins DiscoverX KINOMEscan
Put plainly: KINOMEscan 1 μM, HIPK4. The format is binding. Particulars: 1000 nM; Entrez HIPK4; read-out: Percent Control. The text has this:
(§1) Supplement cells-12-00287-s001.zip/File S2. KinomeScan data for the CAMKK2 probe and negative control.xlsx, sheet "SGC-CAMKK2-1" | column: Percent Control

The target of another experiment is T2, PIK3C2B (Homo sapiens, UniProt O00750).
T2 construct: purchased Eurofins DiscoverX KINOMEscan
Put plainly: KINOMEscan 1 μM, PIK3C2B. The format is binding. The settings on record: 1000 nM; Entrez PIK3C2B; read-out: Percent Control.
Description: as §1

In a further experiment the target is T3, CAMK2A (Homo sapiens, UniProt Q9UQM7).
T3 construct: purchased Eurofins DiscoverX KINOMEscan
Put plainly: KINOMEscan 1 μM, CAMK2A. In kind it is binding. The settings on record: 1000 nM; Entrez CAMK2A; read-out: Percent Control.
Description: as §1

The target in experiment [1] is T4, TYK2(JH1domain-catalytic) (Homo sapiens, UniProt P29597).
T4 construct: TYK2(JH1domain-catalytic); purchased Eurofins DiscoverX KINOMEscan
Put plainly: DiscoverX KINOMEscan binding assay at 1 μM, TYK2(JH1domain-catalytic). The settings on record: Compound Concentration 1000 nM, read-out: Percent Control.
Description: as §1

For experiment [2], the target named is T5, BMPR1B (Homo sapiens, UniProt O00238).
T5 construct: purchased Eurofins DiscoverX KINOMEscan
Description: KINOMEscan 1 μM, BMPR1B. In kind it is binding. The settings on record: 1000 nM; Entrez BMPR1B; read-out: Percent Control.
Description: as §1

The next experiment addresses T6, KIT(V559D,V654A) (Homo sapiens, UniProt P10721, V559D/V654A).
T6 construct: purchased Eurofins DiscoverX KINOMEscan
Description: KINOMEscan 1 μM, KIT(V559D,V654A). In kind it is binding. The settings on record: 1000 nM; Entrez KIT; read-out: Percent Control.
Description: as §1

In a further experiment the target is T7, PCTK3 (Homo sapiens, UniProt Q07002).
T7 construct: purchased Eurofins DiscoverX KINOMEscan
Put plainly: KINOMEscan 1 μM, PCTK3. In kind it is binding. The settings on record: 1000 nM; Entrez CDK18; read-out: Percent Control.
Description: as §1

For the next experiment, the target named is T8, CDK7 (Homo sapiens, UniProt P50613).
T8 construct: purchased Eurofins DiscoverX KINOMEscan
Description: KINOMEscan 1 μM, CDK7. In kind it is binding. The settings on record: 1000 nM; Entrez CDK7; read-out: Percent Control.
Description: as §1

The next experiment concerns the target T9, NEK1 (Homo sapiens, UniProt Q96PY6).
T9 construct: purchased Eurofins DiscoverX KINOMEscan
Put plainly: KINOMEscan 1 μM, NEK1. The format is binding. The settings on record: 1000 nM; Entrez NEK1; read-out: Percent Control.
Description: as §1

In a further experiment the target is T10, CSNK1A1 (Homo sapiens, UniProt P48729).
T10 construct: purchased Eurofins DiscoverX KINOMEscan
Description: KINOMEscan 1 μM, CSNK1A1. Particulars: 1000 nM; Entrez CSNK1A1; read-out: Percent Control. In kind it is binding.
Description: as §1

Another experiment concerns the target T11, SIK2 (Homo sapiens, UniProt Q9H0K1).
T11 construct: purchased Eurofins DiscoverX KINOMEscan
Put plainly: KINOMEscan 1 μM, SIK2. In kind it is binding. Particulars: 1000 nM; Entrez SIK2; read-out: Percent Control.
Description: as §1

The next experiment concerns the target T12, INSRR (Homo sapiens, UniProt P14616).
T12 construct: purchased Eurofins DiscoverX KINOMEscan
Description: KINOMEscan 1 μM, INSRR. The format is binding. The settings on record: 1000 nM; Entrez INSRR; read-out: Percent Control.
Description: as §1

The target of the next experiment is T13, DAPK3 (Homo sapiens, UniProt O43293).
T13 construct: purchased Eurofins DiscoverX KINOMEscan
Put plainly: KINOMEscan 1 μM, DAPK3. In kind it is binding. The settings on record: 1000 nM; Entrez DAPK3; read-out: Percent Control.
Description: as §1

A further experiment has as its target T14, MAP3K15 (Homo sapiens, UniProt Q6ZN16).
T14 construct: purchased Eurofins DiscoverX KINOMEscan
Description: KINOMEscan 1 μM, MAP3K15. The settings on record: 1000 nM; Entrez MAP3K15; read-out: Percent Control. The format is binding.
Description: as §1

Another experiment has as its target T15, ABL1-phosphorylated (Homo sapiens, UniProt P00519).
T15 construct: purchased Eurofins DiscoverX KINOMEscan
Description: KINOMEscan 1 μM, ABL1-phosphorylated. The format is binding. Particulars: 1000 nM; Entrez ABL1; read-out: Percent Control.
Description: as §1

The target of the next experiment is T16, TRKC (Homo sapiens, UniProt Q16288).
T16 construct: purchased Eurofins DiscoverX KINOMEscan
Put plainly: KINOMEscan 1 μM, TRKC. In kind it is binding. Particulars: 1000 nM; Entrez NTRK3; read-out: Percent Control.
Description: as §1

In another experiment the target is T17, JNK2 (Homo sapiens, UniProt P45984).
T17 construct: purchased Eurofins DiscoverX KINOMEscan
Put plainly: KINOMEscan 1 μM, JNK2. The format is binding. Particulars: 1000 nM; Entrez MAPK9; read-out: Percent Control.
Description: as §1

Another experiment has as its target T18, LCK (Homo sapiens, UniProt P06239).
T18 construct: purchased Eurofins DiscoverX KINOMEscan
Description: KINOMEscan 1 μM, LCK. In kind it is binding. Particulars: 1000 nM; Entrez LCK; read-out: Percent Control.
Description: as §1

The target of another experiment is T19, TIE1 (Homo sapiens, UniProt P35590).
T19 construct: purchased Eurofins DiscoverX KINOMEscan
Put plainly: KINOMEscan 1 μM, TIE1. The format is binding. Particulars: 1000 nM; Entrez TIE1; read-out: Percent Control.
Description: as §1

The target in a further experiment is T20, MLK3 (Homo sapiens, UniProt Q16584).
T20 construct: purchased Eurofins DiscoverX KINOMEscan
Description: KINOMEscan 1 μM, MLK3. Particulars: 1000 nM; Entrez MAP3K11; read-out: Percent Control. In kind it is binding.
Description: as §1

A further experiment concerns the target T21, PLK2 (Homo sapiens, UniProt Q9NYY3).
T21 construct: purchased Eurofins DiscoverX KINOMEscan
Put plainly: KINOMEscan at 1 μM, PLK2. In kind it is binding. The settings on record: 1000 nM, read-out: Percent Control. The text has this: (§2) Supplement cells-12-00287-s001.zip/File S2. KinomeScan data for the CAMKK2 probe and negative control.xlsx, sheet "SGC-CAMKK2-1N" | column: Percent Control

A further experiment concerns the target T22, CLK4 (Homo sapiens, UniProt Q9HAZ1).
T22 construct: purchased Eurofins DiscoverX KINOMEscan
Put plainly: KINOMEscan at 1 μM, CLK4. In kind it is binding. The settings on record: 1000 nM, read-out: Percent Control.
Description: as §2

For the next experiment, the target named is T23, DCAMKL1 (Homo sapiens, UniProt O15075).
T23 construct: purchased Eurofins DiscoverX KINOMEscan
Description: KINOMEscan at 1 μM, DCAMKL1. The format is binding. The settings on record: 1000 nM, read-out: Percent Control.
Description: as §2

The next experiment has as its target T24, NEK7 (Homo sapiens, UniProt Q8TDX7).
T24 construct: purchased Eurofins DiscoverX KINOMEscan
Put plainly: KINOMEscan at 1 μM, NEK7. The format is binding. Particulars: 1000 nM, read-out: Percent Control.
Description: as §2

In another experiment the target is T25, TGFBR2 (Homo sapiens, UniProt P37173).
T25 construct: purchased Eurofins DiscoverX KINOMEscan
Put plainly: KINOMEscan binding assay at 1 μM, TGFBR2. The settings on record: Compound Concentration 1000 nM; read-out: Percent Control.
Description: as §2

Another experiment addresses T26, DRAK2 (Homo sapiens, UniProt O94768).
T26 construct: purchased Eurofins DiscoverX KINOMEscan
Description: KINOMEscan at 1 μM, DRAK2. Particulars: 1000 nM, read-out: Percent Control. In kind it is binding.
Description: as §2

Experiment [3] deals with T27, RPS6KA5(Kin.Dom.1-N-terminal) (Homo sapiens, UniProt O75582).
T27 construct: RPS6KA5(Kin.Dom.1-N-terminal); purchased Eurofins DiscoverX KINOMEscan
Description: KINOMEscan binding assay at 1 μM, RPS6KA5(Kin.Dom.1-N-terminal). Particulars: Compound Concentration 1000 nM; read-out: Percent Control.
Description: as §2

Experiment [4] concerns the target T5, BMPR1B. Put plainly: KINOMEscan at 1 μM, BMPR1B. The format is binding. Particulars: 1000 nM, read-out: Percent Control.
Description: as §2

A further experiment deals with T28, RET(V804L) (Homo sapiens, UniProt P07949, V804L).
T28 construct: purchased Eurofins DiscoverX KINOMEscan
Put plainly: KINOMEscan at 1 μM, RET(V804L). In kind it is binding. The settings on record: 1000 nM, read-out: Percent Control.
Description: as §2

In a further experiment the target is T29, EGFR(S752-I759del) (Homo sapiens, UniProt P00533, DEL752-759).
T29 construct: purchased Eurofins DiscoverX KINOMEscan
Description: KINOMEscan binding assay at 1 μM, EGFR(S752-I759del). The settings on record: Compound Concentration 1000 nM; read-out: Percent Control.
Description: as §2

The target in another experiment is T30, MAPKAPK2 (Homo sapiens, UniProt P49137).
T30 construct: purchased Eurofins DiscoverX KINOMEscan
Description: KINOMEscan binding assay at 1 μM, MAPKAPK2. The settings on record: Compound Concentration 1000 nM; read-out: Percent Control.
Description: as §2

T5 sequence (O00238 14-502): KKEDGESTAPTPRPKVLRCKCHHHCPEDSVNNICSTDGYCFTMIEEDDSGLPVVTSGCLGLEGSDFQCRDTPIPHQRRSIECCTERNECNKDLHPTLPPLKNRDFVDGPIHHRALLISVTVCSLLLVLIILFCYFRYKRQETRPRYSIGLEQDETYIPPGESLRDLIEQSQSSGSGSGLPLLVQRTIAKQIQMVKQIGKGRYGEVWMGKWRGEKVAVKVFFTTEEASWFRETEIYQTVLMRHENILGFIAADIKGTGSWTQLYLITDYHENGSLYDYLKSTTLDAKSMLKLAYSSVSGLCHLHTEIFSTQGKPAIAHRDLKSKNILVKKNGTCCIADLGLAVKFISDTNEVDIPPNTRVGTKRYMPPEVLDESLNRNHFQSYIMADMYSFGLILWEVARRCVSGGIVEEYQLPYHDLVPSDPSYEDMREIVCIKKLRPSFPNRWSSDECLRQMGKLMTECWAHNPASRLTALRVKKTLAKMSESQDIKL
T11 sequence (Q9H0K1 whole entry): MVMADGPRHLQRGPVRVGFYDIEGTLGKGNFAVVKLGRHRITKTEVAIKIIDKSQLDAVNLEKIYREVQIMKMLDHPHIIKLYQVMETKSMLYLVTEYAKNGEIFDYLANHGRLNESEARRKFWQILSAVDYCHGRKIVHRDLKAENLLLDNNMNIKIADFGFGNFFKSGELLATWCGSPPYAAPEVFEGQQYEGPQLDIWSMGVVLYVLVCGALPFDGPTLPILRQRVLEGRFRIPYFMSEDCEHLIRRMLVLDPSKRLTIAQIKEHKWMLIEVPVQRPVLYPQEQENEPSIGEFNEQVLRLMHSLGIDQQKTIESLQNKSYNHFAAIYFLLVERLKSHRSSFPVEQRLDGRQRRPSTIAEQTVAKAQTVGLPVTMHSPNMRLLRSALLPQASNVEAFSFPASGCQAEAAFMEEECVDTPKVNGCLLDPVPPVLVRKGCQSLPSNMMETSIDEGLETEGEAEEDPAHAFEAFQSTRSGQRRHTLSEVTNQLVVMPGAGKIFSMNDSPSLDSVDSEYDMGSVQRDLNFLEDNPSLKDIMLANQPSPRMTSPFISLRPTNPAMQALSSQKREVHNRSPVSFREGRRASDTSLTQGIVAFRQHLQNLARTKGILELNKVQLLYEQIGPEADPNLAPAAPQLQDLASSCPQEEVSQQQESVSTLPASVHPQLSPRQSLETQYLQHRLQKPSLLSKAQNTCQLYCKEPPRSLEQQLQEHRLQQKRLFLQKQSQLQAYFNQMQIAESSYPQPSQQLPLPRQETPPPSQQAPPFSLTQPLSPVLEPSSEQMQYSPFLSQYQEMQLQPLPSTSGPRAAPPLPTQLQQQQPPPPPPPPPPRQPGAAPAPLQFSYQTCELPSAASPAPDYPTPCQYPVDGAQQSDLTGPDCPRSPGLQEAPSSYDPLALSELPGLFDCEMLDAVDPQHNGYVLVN
T14 sequence (Q6ZN16 whole entry): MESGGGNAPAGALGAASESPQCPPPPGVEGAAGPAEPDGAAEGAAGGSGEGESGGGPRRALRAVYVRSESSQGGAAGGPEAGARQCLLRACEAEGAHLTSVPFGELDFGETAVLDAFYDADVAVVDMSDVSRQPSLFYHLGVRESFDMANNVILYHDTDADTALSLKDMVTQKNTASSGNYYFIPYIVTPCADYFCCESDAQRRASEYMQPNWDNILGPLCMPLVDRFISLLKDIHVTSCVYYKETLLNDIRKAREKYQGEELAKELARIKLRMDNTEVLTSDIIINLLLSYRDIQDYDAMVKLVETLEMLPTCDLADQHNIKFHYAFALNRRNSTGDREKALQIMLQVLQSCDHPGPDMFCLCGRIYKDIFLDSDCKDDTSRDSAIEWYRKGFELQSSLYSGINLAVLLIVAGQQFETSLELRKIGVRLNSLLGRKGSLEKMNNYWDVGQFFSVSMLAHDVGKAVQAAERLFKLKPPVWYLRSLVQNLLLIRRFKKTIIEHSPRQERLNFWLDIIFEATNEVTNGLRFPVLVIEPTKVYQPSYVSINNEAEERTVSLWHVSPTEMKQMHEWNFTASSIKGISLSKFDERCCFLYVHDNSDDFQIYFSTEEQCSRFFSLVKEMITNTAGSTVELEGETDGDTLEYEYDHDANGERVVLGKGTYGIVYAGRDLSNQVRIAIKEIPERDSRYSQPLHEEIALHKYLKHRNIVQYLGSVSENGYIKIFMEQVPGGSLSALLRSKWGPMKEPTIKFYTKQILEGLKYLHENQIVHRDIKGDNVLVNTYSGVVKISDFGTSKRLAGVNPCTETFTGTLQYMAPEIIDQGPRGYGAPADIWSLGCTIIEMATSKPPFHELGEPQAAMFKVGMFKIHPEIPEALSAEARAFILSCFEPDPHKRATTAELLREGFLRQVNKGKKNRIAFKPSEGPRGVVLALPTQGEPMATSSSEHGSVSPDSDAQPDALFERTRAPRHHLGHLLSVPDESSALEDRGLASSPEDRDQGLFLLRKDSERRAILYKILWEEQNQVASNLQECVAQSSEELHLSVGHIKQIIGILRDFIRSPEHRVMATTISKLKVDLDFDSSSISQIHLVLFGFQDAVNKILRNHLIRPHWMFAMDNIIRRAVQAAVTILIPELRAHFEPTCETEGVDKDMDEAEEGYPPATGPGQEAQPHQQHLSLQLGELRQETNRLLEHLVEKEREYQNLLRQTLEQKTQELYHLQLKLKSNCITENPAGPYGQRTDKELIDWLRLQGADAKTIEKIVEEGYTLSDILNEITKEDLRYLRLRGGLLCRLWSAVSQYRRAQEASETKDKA
T16 sequence (Q16288 32-839): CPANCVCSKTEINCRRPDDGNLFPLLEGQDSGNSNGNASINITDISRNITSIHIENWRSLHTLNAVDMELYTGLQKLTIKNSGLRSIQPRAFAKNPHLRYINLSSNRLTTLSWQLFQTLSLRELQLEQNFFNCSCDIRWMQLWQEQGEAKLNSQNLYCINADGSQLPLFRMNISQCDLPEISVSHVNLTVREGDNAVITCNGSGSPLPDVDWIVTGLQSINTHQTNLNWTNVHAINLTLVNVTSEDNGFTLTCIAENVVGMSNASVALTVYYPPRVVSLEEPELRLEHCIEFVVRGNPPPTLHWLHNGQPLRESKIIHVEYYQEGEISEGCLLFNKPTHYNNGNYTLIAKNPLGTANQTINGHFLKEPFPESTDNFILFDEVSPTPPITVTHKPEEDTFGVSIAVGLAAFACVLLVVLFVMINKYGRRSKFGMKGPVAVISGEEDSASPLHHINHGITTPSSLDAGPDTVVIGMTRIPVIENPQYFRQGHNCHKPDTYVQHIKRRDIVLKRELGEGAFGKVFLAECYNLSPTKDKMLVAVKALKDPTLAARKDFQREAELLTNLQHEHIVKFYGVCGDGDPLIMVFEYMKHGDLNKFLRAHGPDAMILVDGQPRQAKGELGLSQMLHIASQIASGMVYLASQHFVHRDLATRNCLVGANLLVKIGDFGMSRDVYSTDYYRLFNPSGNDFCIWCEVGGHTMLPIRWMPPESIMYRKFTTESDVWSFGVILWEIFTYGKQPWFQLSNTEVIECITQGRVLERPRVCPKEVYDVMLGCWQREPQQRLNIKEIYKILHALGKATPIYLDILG
T20 sequence (Q16584 whole entry): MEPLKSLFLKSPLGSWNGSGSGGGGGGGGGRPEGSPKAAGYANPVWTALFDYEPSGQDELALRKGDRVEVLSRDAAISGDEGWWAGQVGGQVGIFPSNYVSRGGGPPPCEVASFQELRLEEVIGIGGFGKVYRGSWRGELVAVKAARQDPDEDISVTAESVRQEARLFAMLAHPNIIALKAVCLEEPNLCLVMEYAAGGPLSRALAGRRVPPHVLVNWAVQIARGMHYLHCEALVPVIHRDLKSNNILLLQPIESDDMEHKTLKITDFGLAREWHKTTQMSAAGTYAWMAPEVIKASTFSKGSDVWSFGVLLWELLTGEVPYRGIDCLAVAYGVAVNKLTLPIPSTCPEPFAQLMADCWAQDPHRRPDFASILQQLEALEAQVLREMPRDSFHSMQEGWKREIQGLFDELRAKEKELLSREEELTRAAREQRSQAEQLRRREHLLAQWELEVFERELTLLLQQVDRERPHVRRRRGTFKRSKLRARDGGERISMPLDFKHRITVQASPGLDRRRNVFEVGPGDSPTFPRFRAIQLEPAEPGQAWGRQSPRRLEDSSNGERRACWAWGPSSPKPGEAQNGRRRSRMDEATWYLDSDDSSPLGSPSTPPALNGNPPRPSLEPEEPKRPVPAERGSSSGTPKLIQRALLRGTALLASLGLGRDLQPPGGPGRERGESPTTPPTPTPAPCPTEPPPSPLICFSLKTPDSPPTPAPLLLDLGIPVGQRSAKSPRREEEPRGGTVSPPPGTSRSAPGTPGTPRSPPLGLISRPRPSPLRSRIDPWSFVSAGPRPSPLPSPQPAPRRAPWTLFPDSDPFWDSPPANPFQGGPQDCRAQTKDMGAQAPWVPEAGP
T8 sequence (P50613 whole entry): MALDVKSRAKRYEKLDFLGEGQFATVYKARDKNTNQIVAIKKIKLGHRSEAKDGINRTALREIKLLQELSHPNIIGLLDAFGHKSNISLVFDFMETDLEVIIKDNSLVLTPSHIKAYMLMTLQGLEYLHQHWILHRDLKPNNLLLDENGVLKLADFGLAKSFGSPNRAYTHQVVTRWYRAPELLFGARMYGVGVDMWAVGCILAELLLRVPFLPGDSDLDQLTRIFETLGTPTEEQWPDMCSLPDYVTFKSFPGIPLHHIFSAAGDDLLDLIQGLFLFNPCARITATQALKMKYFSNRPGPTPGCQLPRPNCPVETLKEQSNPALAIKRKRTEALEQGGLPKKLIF
T29 sequence (P00533 with tags, fused parts or gaps DEL752-759 limits assumed): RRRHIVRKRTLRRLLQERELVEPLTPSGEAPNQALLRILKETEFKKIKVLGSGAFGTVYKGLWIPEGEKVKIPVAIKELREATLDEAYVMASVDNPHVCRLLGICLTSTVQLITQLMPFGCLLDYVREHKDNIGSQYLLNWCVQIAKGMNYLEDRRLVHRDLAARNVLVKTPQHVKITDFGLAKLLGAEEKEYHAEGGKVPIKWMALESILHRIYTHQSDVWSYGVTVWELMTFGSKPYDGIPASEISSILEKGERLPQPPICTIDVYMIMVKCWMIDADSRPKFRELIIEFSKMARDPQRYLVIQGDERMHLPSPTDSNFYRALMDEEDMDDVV

Consider `Cc1cccc(-c2cnc3occ(-c4ccc(C(=O)O)c(C5CCCC5)c4)c3c2)c1` [SGC-CAMKK2-1 (YL-36)], for which the remaining binding at 1 µM was found to be 100% on HIPK4; 87% at PIK3C2B; 95% at CAMK2A; 100% in [1]; 100% on BMPR1B [2]; 100% at KIT(V559D,V654A). The remaining binding at 1 µM was 99% on PCTK3; 92% on CDK7; 85% on NEK1; 78% on CSNK1A1; 85% on SIK2; 88% on INSRR. Moreover, the remaining binding at 1 µM on DAPK3 came out at 100%; on MAP3K15, 84%; at ABL1-phosphorylated, 98%; on TRKC, 81%; on JNK2, 100%; on LCK, 86%. Also, the remaining binding at 1 µM at TIE1 was found to be 77%; at MLK3 it was 89%.
For `O=C(O)c1ccc(-c2coc3ncc(-c4ccccc4)cc23)cc1Cl` [SGC-CAMKK2-1N (UNC-YL-83)], the remaining binding at 1 µM came out at 91% on PLK2; 93% at CLK4; 100% on DCAMKL1; 78% on NEK7; 100% at TGFBR2; 90% on DRAK2. Moreover, the remaining binding at 1 µM was found to be 100% in experiment [3]; 65% on BMPR1B [4]; 90% at RET(V804L); 100% at EGFR(S752-I759del); 100% at MAPKAPK2.
